In one data set the target is T1, PPARγ-RXRα heterodimer (Homo sapiens, UniProt P37231).
T1 construct: expressed in transfected cells
T1 sequence (P37231 1-477 isoform P37231-2): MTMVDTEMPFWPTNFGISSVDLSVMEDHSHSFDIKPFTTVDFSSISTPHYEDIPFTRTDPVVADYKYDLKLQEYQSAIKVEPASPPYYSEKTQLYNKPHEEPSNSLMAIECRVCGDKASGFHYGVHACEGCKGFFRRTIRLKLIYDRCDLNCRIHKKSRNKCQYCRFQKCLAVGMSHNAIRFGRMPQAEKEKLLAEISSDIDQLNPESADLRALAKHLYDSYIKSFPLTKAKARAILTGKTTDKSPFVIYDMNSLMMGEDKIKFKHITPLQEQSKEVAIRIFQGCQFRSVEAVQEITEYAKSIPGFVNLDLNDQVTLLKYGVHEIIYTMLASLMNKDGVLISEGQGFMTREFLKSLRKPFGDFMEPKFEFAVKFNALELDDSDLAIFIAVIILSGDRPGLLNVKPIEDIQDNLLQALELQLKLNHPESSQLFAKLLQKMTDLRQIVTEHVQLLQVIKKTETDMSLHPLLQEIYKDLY
T1 sequence (P19793 1-462 partner): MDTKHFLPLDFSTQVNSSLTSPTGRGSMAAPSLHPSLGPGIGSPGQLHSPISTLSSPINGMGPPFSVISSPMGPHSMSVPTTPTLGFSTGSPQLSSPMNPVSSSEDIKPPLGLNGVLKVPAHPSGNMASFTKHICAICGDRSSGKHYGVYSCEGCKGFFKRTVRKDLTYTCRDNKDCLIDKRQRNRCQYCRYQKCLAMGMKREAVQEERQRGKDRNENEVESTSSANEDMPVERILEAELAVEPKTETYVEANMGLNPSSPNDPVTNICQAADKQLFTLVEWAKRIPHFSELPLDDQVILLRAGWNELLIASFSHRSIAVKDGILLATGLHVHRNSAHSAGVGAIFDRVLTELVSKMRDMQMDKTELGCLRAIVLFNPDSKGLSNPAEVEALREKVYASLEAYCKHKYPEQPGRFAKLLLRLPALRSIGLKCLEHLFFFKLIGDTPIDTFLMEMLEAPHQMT
As to the kind of experiment: PPARγ-RXRα heterodimer ligand activity (luciferase reporter, PPARγ:RXRα:4ERPP/CHO-K1 cells). Conditions: luciferase activity at 100 nM test compound relative to non-administration group as 1. Type of data set: cell-based. The method, then:
The PPARγ:RXRα:4ERPP/CHO-K1 cells obtained in Reference Example 8a were cultured in Ham's F12 medium [produced by Life Technologies, Inc., USA] containing 10% fetal bovine serum [produced by Life Technologies, Inc., USA] and inoculated to a 96-well white plate [produced by Corning Coster Corporation, USA] at 2×10^4 cells/well and cultured overnight at 37° C. in a carbon dioxide gas incubator.
After removal of the medium from the 96-well white plate which had been cultured overnight, Ham's F12 medium containing 80 μl of 0.1% fatty acid-free bovine serum albumin (BSA) and 20 μl of a test compound were added, and the plate was incubated at 37° C. in a carbon dioxide gas incubator for 18 to 24 hours. After removal of the medium, 40 μl of PicaGene 7.5 (produced by Waco Pure Chemicals Industries, Ltd.) diluted twofold with HBSS (HANKS' BALANCED SALT SOLUTION) (produced by BIO WHITTAKER) was added, and after stirring, the luciferase activity was determined using 1420 ARVO Multilabel Counter [produced by Wallac].
A fold induction was calculated from the luciferase activity for addition of each 100 nM of the test compound relative to the luciferase activity of the test compound non-administration group as 1. Results are shown in [Table 1]. […]
Background: Reporter assays use an easily measured gene product as a stand-in for the process of interest.

For a further data set, the target named is T2, PPARδ-RXRα heterodimer (Homo sapiens, UniProt Q03181).
T2 construct: expressed in transfected cells; host or cells: COS-1 (transient; pMCMVneo-hPPARδ + pMCMVneo-hRXRα)
T2 sequence (Q03181 1-441): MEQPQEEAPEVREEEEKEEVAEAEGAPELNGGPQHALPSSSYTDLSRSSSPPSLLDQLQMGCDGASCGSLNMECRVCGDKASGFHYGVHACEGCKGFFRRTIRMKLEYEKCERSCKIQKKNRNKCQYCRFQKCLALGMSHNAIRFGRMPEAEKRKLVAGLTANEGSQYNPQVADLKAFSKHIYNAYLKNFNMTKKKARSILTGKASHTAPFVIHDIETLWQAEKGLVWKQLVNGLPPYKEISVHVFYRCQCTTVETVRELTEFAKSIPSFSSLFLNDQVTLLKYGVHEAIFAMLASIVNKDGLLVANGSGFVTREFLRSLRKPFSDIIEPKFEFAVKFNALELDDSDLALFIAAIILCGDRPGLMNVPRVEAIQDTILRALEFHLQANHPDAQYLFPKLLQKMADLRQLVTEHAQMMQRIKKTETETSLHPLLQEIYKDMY
T2 sequence (P19793 1-462 partner): T1 sequence (P19793 1-462 partner)
As to the kind of experiment: PPARδ-RXRα heterodimer ligand activity (luciferase reporter, transfected COS-1 cells). The data set is classed as cell-based. Conditions: luciferase activity at 10 nM test compound relative to non-administration group as 1. The method, then: At 18 to 24 hours after transfection carried out in Reference Example 9a, COS-1 cells were collected, suspended in DMEM medium [manufactured by Life Technologies, Inc., USA] containing 0.1% fatty acid-free bovine serum albumin (BSA) (produced by Waco Pure Chemicals Industries, Ltd.), and inoculated to each well of a 96-well white plate (produced by Corning, USA) at 1×10^4 cells/well in 80 μl. Subsequently, 20 μl of a test compound was added, and the plate was incubated under the conditions of 37° C. and 5% CO2 for 36 to 48 hours. After removal of the medium from the 96-well white plate, 40 μl of PicaGene. LT 7.5 (produced by Waco Pure Chemicals Industries, Ltd.) diluted twofold with HBSS (HANKS' BALANCED SALT SOLUTION) (produced by BIO WHITTAKER) was added, and after stirring, the luciferase activity was determined using 1420 ARVO Multilabel Counter [produced by Wallac].
The fold induction was calculated from the luciferase activity for addition of each 10 nM of the test compound relative to the luciferase activity of the test compound non-administration group as 1. Results are shown in [Table 2].
A COS-1 cell was inoculated in a cell culture flask (produced by Corning, USA) of 150 cm^2 at 5×10^6 cells/50 ml, and the plate was incubated under the conditions of 37° C. and 5% CO2 for 24 hours. Transfection was carried out with lipofectamine (produced by Invitrogen, USA). A transfection mixture solution was prepared by mixing 125 μl of lipofectamine, 100 μl of PLUS Reagent, 2.5 μg of pMCMVneo-hPPARδ (obtained in Reference Example 3a), 2.5 μg of pMCMVneo-hRXRα (obtained in Reference Example 4a), 5 μg of reporter plasmid pGL3-4ERPP-TK neo (obtained in Reference Example 5a) and 5 μg of pRL-tk [produced by Promega, USA] with 5 ml of opti-MEM (produced by Invitrogen, USA). To the COS-1 cell washed with opti-MEM, the above-mentioned transfection mixture solution and 20 ml of opti-MEM were added, and then incubated under the conditions of 37° C. and 5% CO2 for 3 hours. Then, 25 ml of DMEM medium [manufactured by Life Technologies, Inc., USA] containing 0.1% fatty acid-free bovine serum albumin (BSA) (produced by Waco Pure Chemicals Industries, Ltd.) was added thereto, and then incubated under the conditions of 37° C. and 5% CO2 for 18 to 24 hours.

The target of another data set is T3, human GPR40 (Homo sapiens, UniProt O14842).
T3 construct: expressed in transfected cells; host or cells: CHO cell strain (No. 104)
As to the kind of experiment: Receptor function regulating action (agonist action) for GPR40, intracellular calcium by FLIPR in CHO cells. Conditions: CHO cells expressing human GPR40; change of fluorescence intensity at 30 seconds after reaction initiation. Type of data set: cell-based. The method, then: CHO cell strain (No. 104) which have had expressed human GPR40 was diluted to contain 3×10^4 cells/100 μL, and added to a Black walled 96-well plate (Costar) at 100 μL/well, and incubated overnight in CO2 incubator. Change of intracellular calcium concentration was measured with FLIPR (Molecular Device). The method is as follows. 50 μg of Fluo-3AM (DOJIN) was dissolved in 21 μL of DMSO (DOJIN), and the same amount of 20% pluronic acid (Molecular Probes) was further added thereto, and the mixture was mixed. The mixture was added to 10.6 mL of an assay buffer [prepared by adding 10 mL of solution which was produced by adding 20 mL of 1 M HEPES (pH 7.4) (DOJIN) to 1 L of HBSS (Invitrogen), dissolving 710 mg of probenecid (Sigma) in 5 mL of 1N NaOH, and further adding 5 mL of the above-mentioned HBSS/HEPES solution thereto and mixing it.] containing 105 μL of fetal bovine serum, to give a fluorescent dye solution. The medium of the cell plate was removed, and immediately, the fluorescent dye solution was added at 100 μL/well, and incubated in CO2 incubator for 1 hour, allowing the fluorescent dye to be incorporated into the cells. The cells after incubation were washed with the above-mentioned assay buffer. The compound to be added to the cells was diluted with the assay buffer to each concentration, added to the plate for the test sample. After conducting the above-mentioned pretreatment, intracellular calcium concentration change after adding the compound was measured in FLIPR to investigate the agonist action. By dose-response curve with the change of fluorescence intensity value at 30 seconds after reaction initiation, EC50 value was calculated.

Molecules are shown by their SMILES.

T3 sequence (O14842 whole entry): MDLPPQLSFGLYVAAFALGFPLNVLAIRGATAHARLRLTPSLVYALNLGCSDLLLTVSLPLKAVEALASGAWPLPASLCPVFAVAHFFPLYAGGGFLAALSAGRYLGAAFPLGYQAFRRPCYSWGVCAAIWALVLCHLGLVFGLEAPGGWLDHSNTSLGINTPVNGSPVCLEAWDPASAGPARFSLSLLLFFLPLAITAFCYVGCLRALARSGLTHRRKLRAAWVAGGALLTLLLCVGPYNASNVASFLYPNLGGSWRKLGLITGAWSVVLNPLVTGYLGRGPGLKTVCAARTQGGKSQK

For orientation: melting point means the temperature, or range, at which the solid turns liquid. As a reminder, the fold induction is the ratio of treated to control signal. A high value points to a strong induction. `CCCCCCCN(C(=O)c1cc(-c2ccc(F)cc2)oc1C)c1cccc(CSCC(=O)O)c1` [Example 1(3), [(3{[5-(4-Fluorophenyl)-2-methyl-3-furoyl](heptyl)amino}benzyl)thio]acetic acid] had a melting point of 94 to 96 °C. The fold induction at 0.1 µM at PPARγ-RXRα heterodimer was found to be 2.8.

Take `Cc1oc(C2CCCCC2)c(COc2cccc(CSCC(=O)O)c2)c1-c1ccc(F)cc1` [Example 5(2), [(3-{[2-Dichlorohexyl-4-(4-fluorophenyl)-5-methyl-3-furyl]methoxy}benzyl)thio]acetic acid]: the fold induction at 0.1 µM on PPARγ-RXRα heterodimer was found to be 2.3.

A word on the EC50: it is the concentration at which the effect is half-maximal. In turn, `COc1cc(OCc2cc(-c3ccc(C(F)(F)F)cc3)oc2C)ccc1CCC(=O)O` [Example 6(6), 3-[2-Methoxy-4-({2-methyl-5-[4-(trifluoromethyl)phenyl]-3-furyl}methoxy)phenyl]propionic acid] yielded a melting point of 159 to 160 °C. Moreover, at PPARδ-RXRα heterodimer, the fold induction at 0.01 µM stood at 6.6. The EC50 at human GPR40 was 160 nM.

(Values after US7553867B2, “Furan or thiophene derivative and medicinal use thereof” (Takeda Pharmaceutical Company Limited, priority 2002, dated 2009).)
